ChEMBL document CHEMBL1142830, “QSAR studies on structurally similar 2-(4-methanesulfonylphenyl)pyran-4-ones as selective COX-2 inhibitors: a Hansch approach” (Bioorg Med Chem Lett, 2005)

Target: T1, Prostaglandin G/H synthase 2 (Homo sapiens, UniProt P35354)
T1 sequence (P35354 whole entry): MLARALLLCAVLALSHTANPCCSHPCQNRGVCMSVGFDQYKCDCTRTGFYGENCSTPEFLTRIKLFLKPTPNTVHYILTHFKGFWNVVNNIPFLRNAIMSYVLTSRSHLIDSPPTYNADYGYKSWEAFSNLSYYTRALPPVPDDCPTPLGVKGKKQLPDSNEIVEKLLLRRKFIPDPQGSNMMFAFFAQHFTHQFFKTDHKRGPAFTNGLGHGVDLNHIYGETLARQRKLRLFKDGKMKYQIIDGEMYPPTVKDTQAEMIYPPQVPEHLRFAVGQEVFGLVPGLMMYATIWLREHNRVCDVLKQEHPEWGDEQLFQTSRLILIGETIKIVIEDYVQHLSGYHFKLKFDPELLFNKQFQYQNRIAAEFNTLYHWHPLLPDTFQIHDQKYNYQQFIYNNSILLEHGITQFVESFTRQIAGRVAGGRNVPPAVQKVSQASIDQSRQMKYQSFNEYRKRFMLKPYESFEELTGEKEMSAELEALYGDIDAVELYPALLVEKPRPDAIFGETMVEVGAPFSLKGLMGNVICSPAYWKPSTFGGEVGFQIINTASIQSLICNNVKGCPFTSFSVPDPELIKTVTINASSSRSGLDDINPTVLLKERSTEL
Assay: Inhibitory concentration for Cyclooxygenase-2 (Prostaglandin G/H synthase 2) in human whole blood
Type: tissue-based

Row | Structure (SMILES) | IC50 [µM]
1 | Cc1cc(=O)c(Oc2ccc(OC(F)(F)F)cc2)c(-c2ccc(S(C)(=O)=O)cc2)o1 | 2.45
2 | CS(=O)(=O)c1ccc(-c2occ(Cl)c(=O)c2-c2ccc(-c3ccccc3)c(F)c2)cc1 | 87.9
3 | Cc1cc(=O)c(Oc2ccc(Cl)cc2Cl)c(-c2ccc(S(C)(=O)=O)cc2)o1 | 3.38
